Test results as given in patent US5508456A, “9-cis tritium-labeled retinoids and intermediates, methods for their synthesis and methods for their use in discovering retinoid X receptor ligands” (Ligand Pharmaceuticals Incorporated, priority 1994, dated 1996).
Entries after “also recorded” stand apart in the source; their conditions may differ.

How the values were obtained:
[1] = system: RARs and RXRs; assay: Binding to RARs and RXRs (summary over all six receptors); conditions: RARα,β,γ and RXRα,β,γ
[2] = system: RARs and RXRs; conditions: Heyman et al., Cell, 68:397 (1992); cited from earlier work
[3] = system: RARs and RXRs; assay: Binding to and modulating gene expression via RARs and RXRs; conditions: labeled retinoid
[4] = system: RXRs; assay: Binding to RXRs (summary)

Structure (SMILES): CC1=C(/C=C/C(C)=C\C=C\C(C)=C\C(=O)O)C(C)(C)CCC1 [9-cis RA, (2E,4E,6Z,8E)-3.7-Dimethyl-9-(2,6,6-trimethylcyclohexen-1-yl)nona-2.4.6.8-tetraenoic acid]
- binding to / activity on RARs and RXRs, in words [1]: active on all six known retinoid receptors
- binding to / activity on RARs and RXRs, in words ([1]; listed as 9-cis retinoic acid): effectively binds to all six receptors; also recorded: binds to the RARs and RXRs with high affinity in a saturable and specific manner
- binding to and modulating gene expression via the RARs and RXRs, in words [2]: capable of binding to and modulating gene expression via the RARs and RXRs

Structure (SMILES): [3H]C(/C=C(C)\C=C\C1=C(C)CCCC1(C)C)=C\C(C)=C\C(=O)O [monotritium-labeled 9-cis RA, (2E,4E,6Z,8E)-5-[^3 H]-3,7-Dimethyl-9-(2,6,6-trimethylcyclohexen-1-yl)nona-2,4,6,8-tetraenoic acid]
- binding to / activity on RARs and RXRs, in words [1]: binds to all the known RARs and RXRs with approximately equal nanomolar affinities
- binding with, and modulating gene expression from, both RARs and RXRs, in words [3]: capable of binding with, and modulating gene expression from, both RARs and RXRs

Structure (SMILES): CC1=C(/C=C/C(C)=C/C=C/C(C)=C/C(=O)O)C(C)(C)CCC1 [ATRA, all-trans retinoic acid]
- binding to RXRs, in words [4]: does not bind to RXRs
- binding to / activity on RARs and RXRs, in words [1]: only binds to the RARs
- binding to / activity on RARs and RXRs, in words ([1]; listed as all-trans retinoic acid (ATRA)): only active on RARα,β,γ
